Patent EP0245669B1, “Pharmaceutical preparation for preventing damage to living cells by free radicals, or for increasing the efficacy of organic sulphur compounds, and process for increasing the life span of isolated organs” (Medopharm Arzneimittelwerk Dr. Zillich GmbH & Co., priority 1986, dated 1987)

Legend:
[1] = system: Mäuse; assay: Toxicity of the zinc salts used as radiation protection agents (LD50); type: in vivo
Method: In diesem Beispiel wurde die Toxizität der als Strahlenschutzmittel eingesetzten Zinksalze getestet.
Der LD₅₀-Wert betrug für das Zinkaspartat 55 mg/kg Körpergewicht, für das Zinkchlorid 24 mg/kg Körpergewicht und für das Zinksulfat 45 mg/kg Körpergewicht.

[2] = system: weiblichen C3H Mäusen; assay: Radiation protection: survival of mice after gamma irradiation (cobalt-60) following i.p. pretreatment; type: in vivo, Mäuse; settings: for Ueberlebensrate nach Bestrahlung mit 9 Gy Anzahl / Ueberlebensrate nach Bestrahlung mit 10 Gy Anzahl / Ueberlebensrate nach Bestrahlung mit 11 Gy Anzahl / Ueberlebensrate nach Bestrahlung mit 12 Gy Anzahl / Ueberlebensrate nach Bestrahlung mit 13 Gy Anzahl: surviving/irradiated mice; for Ueberlebensrate in %: best result with zinc aspartate alone, 30 days after irradiation; for Ueberleben einer Bestrahlung von 14 Gy: zinc aspartate alone
Excerpt: In den nachfolgenden Beispielen wurde die synergistische Wirkung der durch die erfindungsgemässe Verwendung hergestellten pharmazeutischen Präparate mit organische Schwefelverbindungen enthaltenden Präparaten anhand des Strahlenschutzes getestet und es wurde auch die Strahlenschutzwirkung der Zinkionen enthaltenden Präparate mit bisher bekannten Strahlenschutzpräparaten an Mäusen getestet. Die Versuche wurden mit weiblichen C3H Mäusen (GL. Bomholtgard, Ry, Dänemark) durchgeführt, die 20 bis 22 g wogen. Die Mäuse wurden unter Bedingungen gehalten, wo sie so viel Standard-Nagetierfutter (Nafag Pellts) fressen und so viel Leitungswasser trinken können, wie sie wollten. Die Bestrahlung erfolgte mit Gammastrahlen aus einer Kobalt-60 Quelle. Es wurden unterschiedliche Bestrahlungen vorgenommen, und zwar mit 9 Gy, 10 Gy, 11 Gy, 12 Gy, 13 Gy und 14 Gy.
10 Minuten vor der Bestrahlung, 30 Minuten vor der Bestrahlung oder 120 Minuten vor der Bestrahlung wurde ein durch die erfindungsgemässe Verwendung hergestelltes synergistisch wirkendes pharmazeutisches Präparat, bzw. ein entsprechendes, Zinkionen enthaltendes Strahlenschutzpräparat oder ein aus dem Stand der Technik bekanntes Strahlenschutzpräparat zu Vergleichszwecken durch intraperitoneale Injektion verabreicht.
Bei der Gruppe der Mäuse zu Vergleichszwecken, die ohne Verabreichung eines Strahlenschutzpräparates bestrahlt wurden, erfolgte 10 Minuten vor der Bestrahlung die Verabreichung von destilliertem Wasser. Bei diesen unbehandelten Mäusen überlebten nur 50% der Tiere eine Bestrahlung von 8 Gy, d.h. der LD₅₀-Wert betrug 8 Gy.
Nach den Arbeitsweisen der vorangegangenen Beispiele 1 bis 4, wurden weitere Tests mit den genannten weiblichen Mäusen durchgeführt, und zwar unter Verwendung der angeführten Zinksalze. Die bei diesen Tests erzielten Ergebnisse sind in der nachfolgenden Tabelle I zusammengestellt. Für jede der angewandten Bestrahlungsstärken ist in der Rubrik "Anzahl" diejenige Anzahl der Mäuse angeführt, welche die Bestrahlung überlebten, geteilt durch die Gesamtzahl der Mäuse, welche bestrahlt wurden. Ein entsprechender Wert von 1/10 bedeutet also, dass von 10 bestrahlten Mäusen eine überlebt hatte. In der Spalte mit der Bezeichnung "Prozent", ist die Prozent-Ueberlebensrate angeführt. Bei einer überlebenden Maus pro 10 getesteten Mäusen beträgt diese Ueberlebensrate 10 %.
Zu Vergleichszwecken sind in der nachfolgenden Tabelle III die Ueberlebensraten von Mäusen zusammengestellt, die nach dem in Beispiel 5 beschriebenen Verfahren einer Vorbehandlung mit einem bekannten schwefelhaltigen Strahlenschutzmittel unterworfen worden waren. Orientierende Vorversuche hatten gezeigt, dass diese Strahlenschutzmittel bereits ihre Wirkung verloren hatten, wenn sie zwei Stunden vor der Einwirkung der Bestrahlung verabreicht worden waren. Die Bestrahlung wurde, wie aus der Tabelle ersichtlich ist, zwei Minuten nach der Verabreichung, in den meisten Fällen 10 Minuten nach der Verabreichung, aber auch 30 Minuten, bzw. 120 Minuten nach der Verabreichung durchgeführt. Die Werte deuten darauf hin, dass 30 Minuten nach der Verabreichung die Schutzwirkung schon wieder deutlich nachgelassen hat. Für jede Bestrahlungsstärke ist wiederum die Anzahl der Tiere angeführt, die nach 30 Tagen überlebt haben, geteilt durch die Gesamtzahl der Tiere, die behandelt und bestrahlt worden waren.
Anhand dieses Beispiels soll die synergistische Wirkung von Zinkionen und Schwefelverbindungen bezüglich eines Strahlenschutzes erläutert werden. Es wurde wieder in der gleichen Weise gearbeitet, wie in den vorangegangenen Beispielen 1 bis 3, bzw. 5, und es wurde auch die gleiche Art an weiblichen Mäusen getestet. Die Verabreichung der Zinkionen enthaltenden Lösung und der Lösung der Schwefelverbindung erfolgte entweder nacheinander oder gleichzeitig durch intraperitoneale Injektion.
In allen Fällen wurde die Ueberlebensrate 30 Tage nach der Einwirkung der Bestrahlung bestimmt.

[3] = Floersheim, Agents Actions 16, 580 (1985); cited from earlier work
[4] = 10 mg/kg i.p., 10 min before 9 Gy
[5] = 20 mg/kg i.p., 10 min before 9 Gy
[6] = 20 mg/kg i.p., 10 min before 10 Gy
[7] = 20 mg/kg i.p., 10 min before 11 Gy
[8] = 20 mg/kg i.p., 30 min before 9 Gy
[9] = 20 mg/kg i.p., 30 min before 10 Gy
[10] = 20 mg/kg i.p., 120 min before 9 Gy
[11] = 20 mg/kg i.p., 120 min before 10 Gy
[12] = 30 mg/kg i.p., 10 min before 9 Gy
[13] = 30 mg/kg i.p., 10 min before 10 Gy
[14] = 30 mg/kg i.p., 10 min before 11 Gy
[15] = 30 mg/kg i.p., 10 min before 12 Gy
[16] = 30 mg/kg i.p., 10 min before 13 Gy
[17] = 30 mg/kg i.p., 30 min before 9 Gy
[18] = 30 mg/kg i.p., 30 min before 10 Gy
[19] = 30 mg/kg i.p., 30 min before 11 Gy
[20] = 30 mg/kg i.p., 30 min before 12 Gy
[21] = 30 mg/kg i.p., 30 min before 13 Gy
[22] = 30 mg/kg i.p., 120 min before 9 Gy
[23] = 30 mg/kg i.p., 120 min before 10 Gy
[24] = 30 mg/kg i.p., 120 min before 11 Gy
[25] = 30 mg/kg i.p., 120 min before 12 Gy
[26] = 30 mg/kg i.p., 120 min before 13 Gy
[27] = 40 mg/kg i.p., 10 min before 9 Gy
[28] = 40 mg/kg i.p., 10 min before 10 Gy
[29] = 40 mg/kg i.p., 10 min before 11 Gy
[30] = 40 mg/kg i.p., 10 min before 12 Gy
[31] = 40 mg/kg i.p., 10 min before 13 Gy
[32] = 40 mg/kg i.p., 30 min before 9 Gy
[33] = 40 mg/kg i.p., 30 min before 10 Gy
[34] = 40 mg/kg i.p., 30 min before 11 Gy
[35] = 40 mg/kg i.p., 30 min before 12 Gy
[36] = 40 mg/kg i.p., 30 min before 13 Gy
[37] = 40 mg/kg i.p., 120 min before 9 Gy
[38] = 40 mg/kg i.p., 120 min before 10 Gy
[39] = 40 mg/kg i.p., 120 min before 11 Gy
[40] = 40 mg/kg i.p., 120 min before 12 Gy
[41] = 40 mg/kg i.p., 120 min before 13 Gy

Zink-bis-(DL-hydrogenaspartat) [Zinkaspartat]
LD₅₀-Wert [1]: 55 mg/kg Körpergewicht | Ueberlebensrate nach Bestrahlung mit 9 Gy % [2, 4]: 10% | Ueberlebensrate nach Bestrahlung mit 9 Gy Anzahl [2, 4]: 1/10 | Ueberlebensrate nach Bestrahlung mit 9 Gy % [2, 5]: 67% | Ueberlebensrate nach Bestrahlung mit 9 Gy Anzahl [2, 5]: 26/39 | Ueberlebensrate nach Bestrahlung mit 10 Gy % [2, 6]: 29% | Ueberlebensrate nach Bestrahlung mit 10 Gy Anzahl [2, 6]: 13/45 | Ueberlebensrate nach Bestrahlung mit 11 Gy % [2, 7]: 0% | Ueberlebensrate nach Bestrahlung mit 11 Gy Anzahl [2, 7]: 0/20 | Ueberlebensrate nach Bestrahlung mit 9 Gy % [2, 8]: 60% | Ueberlebensrate nach Bestrahlung mit 9 Gy Anzahl [2, 8]: 6/10 | Ueberlebensrate nach Bestrahlung mit 10 Gy % [2, 9]: 0% | Ueberlebensrate nach Bestrahlung mit 10 Gy Anzahl [2, 9]: 1/10 | Ueberlebensrate nach Bestrahlung mit 9 Gy % [2, 10]: 50% | Ueberlebensrate nach Bestrahlung mit 9 Gy Anzahl [2, 10]: 5/10 | Ueberlebensrate nach Bestrahlung mit 10 Gy % [2, 11]: 0% | Ueberlebensrate nach Bestrahlung mit 10 Gy Anzahl [2, 11]: 0/10 | Ueberlebensrate nach Bestrahlung mit 9 Gy % [2, 12]: 88% | Ueberlebensrate nach Bestrahlung mit 9 Gy Anzahl [2, 12]: 43/49 | Ueberlebensrate nach Bestrahlung mit 10 Gy % [2, 13]: 74^+ % | Ueberlebensrate nach Bestrahlung mit 10 Gy Anzahl [2, 13]: 43/58 | Ueberlebensrate nach Bestrahlung mit 11 Gy % [2, 14]: 10% | Ueberlebensrate nach Bestrahlung mit 11 Gy Anzahl [2, 14]: 3/30 | Ueberlebensrate nach Bestrahlung mit 12 Gy % [2, 15]: 3% | Ueberlebensrate nach Bestrahlung mit 12 Gy Anzahl [2, 15]: 1/30 | Ueberlebensrate nach Bestrahlung mit 13 Gy % [2, 16]: 0% | Ueberlebensrate nach Bestrahlung mit 13 Gy Anzahl [2, 16]: 0/20 | Ueberlebensrate nach Bestrahlung mit 9 Gy % [2, 17]: 80% | Ueberlebensrate nach Bestrahlung mit 9 Gy Anzahl [2, 17]: 8/10 | Ueberlebensrate nach Bestrahlung mit 10 Gy % [2, 18]: 70% | Ueberlebensrate nach Bestrahlung mit 10 Gy Anzahl [2, 18]: 21/30 | Ueberlebensrate nach Bestrahlung mit 11 Gy % [2, 19]: 60% | Ueberlebensrate nach Bestrahlung mit 11 Gy % ([2]; 30 mg/kg i.p., 30 min before 11 Gy, listed as Zink-aspartat): 60^+ % | Ueberlebensrate nach Bestrahlung mit 11 Gy Anzahl [2, 19]: 24/40 | Ueberlebensrate nach Bestrahlung mit 12 Gy % [2, 20]: 57% | Ueberlebensrate nach Bestrahlung mit 12 Gy % ([2]; 30 mg/kg i.p., 30 min before 12 Gy, listed as Zink-aspartat): 57^+ % | Ueberlebensrate nach Bestrahlung mit 12 Gy Anzahl [2, 20]: 17/30 | Ueberlebensrate nach Bestrahlung mit 13 Gy % [2, 21]: 17% | Ueberlebensrate nach Bestrahlung mit 13 Gy Anzahl [2, 21]: 5/30 | Ueberlebensrate nach Bestrahlung mit 9 Gy % [2, 22]: 90^+ % | Ueberlebensrate nach Bestrahlung mit 9 Gy Anzahl [2, 22]: 9/10 | Ueberlebensrate nach Bestrahlung mit 10 Gy % [2, 23]: 40% | Ueberlebensrate nach Bestrahlung mit 10 Gy Anzahl [2, 23]: 8/20 | Ueberlebensrate nach Bestrahlung mit 11 Gy % [2, 24]: 53% | Ueberlebensrate nach Bestrahlung mit 11 Gy Anzahl [2, 24]: 16/30 | Ueberlebensrate nach Bestrahlung mit 12 Gy % [2, 25]: 35% | Ueberlebensrate nach Bestrahlung mit 12 Gy Anzahl [2, 25]: 7/20 | Ueberlebensrate nach Bestrahlung mit 13 Gy % [2, 26]: 14% | Ueberlebensrate nach Bestrahlung mit 13 Gy Anzahl [2, 26]: 4/29 | Ueberlebensrate nach Bestrahlung mit 9 Gy % [2, 27]: 59% | Ueberlebensrate nach Bestrahlung mit 9 Gy Anzahl [2, 27]: 17/29 | Ueberlebensrate nach Bestrahlung mit 10 Gy % [2, 28]: 55% | Ueberlebensrate nach Bestrahlung mit 10 Gy Anzahl [2, 28]: 16/29 | Ueberlebensrate nach Bestrahlung mit 11 Gy % [2, 29]: 3% | Ueberlebensrate nach Bestrahlung mit 11 Gy Anzahl [2, 29]: 1/40 | Ueberlebensrate nach Bestrahlung mit 12 Gy % [2, 30]: 17% | Ueberlebensrate nach Bestrahlung mit 12 Gy Anzahl [2, 30]: 5/30 | Ueberlebensrate nach Bestrahlung mit 13 Gy % [2, 31]: 5% | Ueberlebensrate nach Bestrahlung mit 13 Gy Anzahl [2, 31]: 1/19 | Ueberlebensrate nach Bestrahlung mit 9 Gy % [2, 32]: 45% | Ueberlebensrate nach Bestrahlung mit 9 Gy Anzahl [2, 32]: 9/20 | Ueberlebensrate nach Bestrahlung mit 10 Gy % [2, 33]: 70% | Ueberlebensrate nach Bestrahlung mit 10 Gy Anzahl [2, 33]: 7/10 | Ueberlebensrate nach Bestrahlung mit 11 Gy % [2, 34]: 50% | Ueberlebensrate nach Bestrahlung mit 11 Gy Anzahl [2, 34]: 5/10 | Ueberlebensrate nach Bestrahlung mit 12 Gy % [2, 35]: 30% | Ueberlebensrate nach Bestrahlung mit 12 Gy Anzahl [2, 35]: 3/10 | Ueberlebensrate nach Bestrahlung mit 13 Gy % [2, 36]: 24^+ % | Ueberlebensrate nach Bestrahlung mit 13 Gy Anzahl [2, 36]: 7/29 | Ueberlebensrate nach Bestrahlung mit 9 Gy % [2, 37]: 50% | Ueberlebensrate nach Bestrahlung mit 9 Gy Anzahl [2, 37]: 5/10 | Ueberlebensrate nach Bestrahlung mit 10 Gy % [2, 38]: 50% | Ueberlebensrate nach Bestrahlung mit 10 Gy Anzahl [2, 38]: 5/10 | Ueberlebensrate nach Bestrahlung mit 11 Gy % [2, 39]: 10% | Ueberlebensrate nach Bestrahlung mit 11 Gy Anzahl [2, 39]: 1/10 | Ueberlebensrate nach Bestrahlung mit 12 Gy % [2, 40]: 0% | Ueberlebensrate nach Bestrahlung mit 12 Gy Anzahl [2, 40]: 0/10 | Ueberlebensrate nach Bestrahlung mit 13 Gy % [2, 41]: 5% | Ueberlebensrate nach Bestrahlung mit 13 Gy Anzahl [2, 41]: 1/19 | Ueberlebensrate in % ([2]; 8 Gy): 100% | Ueberlebensrate in % ([2]; 9 Gy): 90% | Ueberlebensrate in % ([2]; 10 Gy): 74% | Ueberlebensrate in % ([2]; 11 Gy): 60% | Ueberlebensrate in % ([2]; 12 Gy): 57% | Ueberlebensrate in % ([2]; 13 Gy): 24% | Ueberlebensrate in % ([2]; 14 Gy): 0% | Strahlenschutzwirkung ([2]; comparison with Zinkchlorid and Zinksulfat): Besonders vorteilhaft | Ueberleben einer Bestrahlung von 14 Gy ([2]; 20 mg/kg body weight, 14 Gy): nicht überlebten | Ueberleben einer Bestrahlung von 14 Gy ([2]; 30 mg/kg body weight, 14 Gy): nicht überlebten | akute Toxizität von Aethanol [3]: vermindert
